Results on 19 compounds are retold here after patent US12227498B2, “Heterocyclic amine derivative and pharmaceutical composition comprising same” (Daewoong Pharmaceutical Co., Ltd., priority 2018, dated 2025).

For orientation: IC50 means the concentration at which inhibition is half-maximal.

One experiment addresses T1, ITK (Homo sapiens, UniProt Q08881).
T1 construct: purchased Promega Corporation
T1 sequence (Q08881 1-620): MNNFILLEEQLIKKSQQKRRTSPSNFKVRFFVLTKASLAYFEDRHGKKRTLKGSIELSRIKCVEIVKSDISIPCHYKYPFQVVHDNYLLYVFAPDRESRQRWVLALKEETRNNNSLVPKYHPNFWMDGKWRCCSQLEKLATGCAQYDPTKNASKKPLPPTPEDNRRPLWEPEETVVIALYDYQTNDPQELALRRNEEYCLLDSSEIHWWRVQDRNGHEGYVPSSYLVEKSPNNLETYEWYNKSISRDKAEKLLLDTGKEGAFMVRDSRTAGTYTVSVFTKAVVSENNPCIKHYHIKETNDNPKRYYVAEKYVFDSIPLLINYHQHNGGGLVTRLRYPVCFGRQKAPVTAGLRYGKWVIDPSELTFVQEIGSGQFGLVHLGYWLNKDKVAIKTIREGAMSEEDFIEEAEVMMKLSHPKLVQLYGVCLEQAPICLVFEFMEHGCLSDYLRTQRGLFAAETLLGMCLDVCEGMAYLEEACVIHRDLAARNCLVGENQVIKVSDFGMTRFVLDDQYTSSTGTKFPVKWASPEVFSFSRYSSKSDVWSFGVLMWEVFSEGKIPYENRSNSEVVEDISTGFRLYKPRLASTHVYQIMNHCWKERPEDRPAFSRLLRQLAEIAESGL
The experiment in a line: Inhibitory activity against ITK, ADP-Glo + ITK Kinase enzyme system kit (Promega). The settings on record: ITK enzyme 0.4 ng/μl; 15 min preincubation at room temperature; 1 hour at 30° C.; luminescence; duplicate. Type of experiment: biochemical. The method, then:
(§1) Inhibitory activities against BTK and ITK were measured for the compounds prepared in the above Examples as follows.
The inhibitory activity against ITK was evaluated using ‘ADP-Glo™+ITK Kinase enzyme system’ kit (Promega Corporation). […] To the plate on which reactions were completed, 5 μl of substrate and 5 μl of ATP prepared so as to have a final concentration of […] were added and then allowed to react at 30° C. for 1 hour. All wells of the plate were treated with 25 μl of ADP-Glo™ reagent and then allowed to react at 30° C. for 40 minutes. After that, all wells were treated with 50 μl of kinase detection buffer, and then allowed to react at 30° C. for 30 minutes under light shielding conditions. For the plate on which all reactions were completed, luminescence was measured and the results were calculated. Evaluation was carried out in duplicate, and negative control and positive control were calculated depending on whether or not the enzyme was added without treatment of the compound. The IC50 was calculated based on the calculated values.
In general terms: ADP-Glo first removes unused ATP, then detects ADP through luciferase.

The next experiment deals with T2, BTK (Homo sapiens, UniProt Q06187).
T2 construct: purchased Promega Corporation
The experiment in a line: Inhibitory activity against BTK, ADP-Glo + BTK Kinase enzyme system kit (Promega). Type of experiment: biochemical. The settings on record: BTK enzyme 1 ng/μl; ATP 10 µM; 15 min preincubation at room temperature; 1 hour at 30° C.; luminescence; duplicate. The method, then:
as §1
The inhibitory activities against BTK were evaluated using ‘ADP-Glo™+BTK Kinase enzyme system’ kit (Promega Corporation). […] 5 μl of substrate and 5 μl of ATP prepared so as to have a final concentration of 10 µM were added to the plate on which reactions were completed, and then allowed to react at 30° C. for 1 hour. All wells of the plate were treated with 25 μl of ADP-Glo™ reagent and allowed to react at 30° C. for 40 minutes. After that, all wells were treated with 50 μl of kinase detection buffer, and then reacted at 30° C. for 30 minutes under light shielding conditions. For the plate on which all reactions were completed, luminescence was measured and the results were calculated. Evaluation was carried out in duplicate, and negative control and positive control were calculated depending on whether or not the enzyme was added without treatment of the compound. The IC50 was calculated based on the calculated values.

T2 sequence (Q06187 whole entry): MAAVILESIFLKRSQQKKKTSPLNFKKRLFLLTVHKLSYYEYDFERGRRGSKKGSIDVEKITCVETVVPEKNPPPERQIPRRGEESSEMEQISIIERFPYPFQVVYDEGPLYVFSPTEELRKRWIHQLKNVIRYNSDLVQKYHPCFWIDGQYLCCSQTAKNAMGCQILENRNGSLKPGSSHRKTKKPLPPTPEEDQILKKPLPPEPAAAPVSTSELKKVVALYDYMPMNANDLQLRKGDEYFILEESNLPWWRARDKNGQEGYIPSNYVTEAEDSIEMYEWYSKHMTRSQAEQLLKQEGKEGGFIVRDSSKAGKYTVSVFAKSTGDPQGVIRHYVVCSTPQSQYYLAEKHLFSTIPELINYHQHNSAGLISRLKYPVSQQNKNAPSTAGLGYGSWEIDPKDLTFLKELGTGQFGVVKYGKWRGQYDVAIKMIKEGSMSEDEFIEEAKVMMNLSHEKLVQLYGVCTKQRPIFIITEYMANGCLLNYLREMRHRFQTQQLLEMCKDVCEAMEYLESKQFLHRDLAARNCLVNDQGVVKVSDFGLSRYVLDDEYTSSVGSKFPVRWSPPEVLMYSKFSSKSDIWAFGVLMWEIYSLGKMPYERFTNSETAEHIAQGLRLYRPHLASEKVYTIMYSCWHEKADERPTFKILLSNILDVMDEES

Regarding `C=CC(=O)N1CCC[C@H](Nc2cc(CN3CCOCC3)cc(Nc3cc[nH]n3)n2)C1` [Example 48, (S)-1-(3-(6-(1H-pyrazol-3-ylamino)-4-(morpholinomethyl)pyridin-2-ylamino)piperidin-1-yl) prop-2-en-1-one], the IC50 at ITK and at BTK was ~1000 nM throughout.

Turning to `Cc1cc(CN2CCOCC2)cc(Nc2ncc(C)s2)n1` [Example 44, 5-methyl-N-(6-methyl-4-(morpholinomethyl)pyridin-2-yl) thiazol-2-amine], the half-maximal inhibitory concentration (IC50) on ITK was ~1000 nM; at BTK it was > 1000 nM.

For the compound `C=CC(=O)N1CCC[C@H](Nc2cc(CN3CCN(CC)CC3)cc(Nc3ncc(C)s3)n2)C1` [Example 42, (S)-1-(3-((4-((4-ethylpiperazin-1-yl)methyl)-6-((5-methylthiazol-2-yl)amino)pyridin-2-yl)amino)piperidin-1-yl) prop-2-en-1-one], the IC50 at ITK is 2.2 nM; at BTK, 2.5 nM.

For the compound `C=CC(=O)NC1CCN(c2cc(CN3CCOCC3)cc(Nc3ncc(C)s3)n2)CC1` [Example 27, N-(1-(6-((5-methylthiazol-2-yl)amino)-4-(morpholinomethyl)pyridin-2-yl)piperidin-4-yl) acrylamide], the IC50 at ITK came to 43.8 nM; at BTK, 85.2 nM.

Take `Cc1cnc(Nc2cc(CN3CCOCC3)cc(N[C@H]3CCCN(C(=O)/C=C/Cl)C3)n2)s1` [Example 46, (S,E)-3-chloro-1-(3-(6-(5-methylthiazol-2-ylamino)-4-(morpholinomethyl)pyridin-2-ylamino)piperidin-1-yl) prop-2-en-1-one]: the IC50 stood at 31.8 nM on ITK and 5.2 nM on BTK.

On to `C=CC(=O)N1CCC[C@H](N(C)c2cc(CN3CCOCC3)cc(Nc3ncc(C)s3)n2)C1` [Example 26, (S)-1-(3-(methyl (6-((5-methylthiazol-2-yl)amino)-4-(morpholinomethyl)pyridin-2-yl)amino)piperidin-1-yl) prop-2-en-1-one], for which the 50% inhibitory concentration (IC50) at ITK is 17.7 nM; at BTK it was 2.2 nM.

Take `C=CC(=O)N1CC2(CC(Nc3cc(CN4CCOCC4)cc(Nc4ncc(C)s4)n3)C2)C1` [Example 30, 1-(6-((6-((5-methylthiazol-2-yl)amino)-4-(morpholinomethyl)pyridin-2-yl)amino)-2-azaspiro[3.3]heptan-2-yl) prop-2-en-1-one]: the figures for the IC50 on ITK and on BTK were 47 nM and 67.1 nM, respectively.

Regarding `C=CC(=O)N1CCC(Oc2cc(CN3CCOCC3)cc(Nc3ncc(C)s3)n2)CC1` [Example 11, 1-(4-((6-((5-methylthiazol-2-yl)amino)-4-(morpholinomethyl)pyridin-2-yl)oxy)piperidin-1-yl) prop-2-en-1-one], the IC50 at ITK is 7.8 nM; at BTK, 8.5 nM.

`C=CC(=O)N1CCC[C@H](Nc2cc(CN3CCOCC3)cc(Nc3ncccn3)n2)C1` [Example 54, (S)-1-(3-(4-(morpholinomethyl)-6-(pyrimidin-2-ylamino)pyridin-2-ylamino)piperidin-1-yl) prop-2-en-1-one]: the IC50 at ITK and on BTK was ~1000 nM in each case.

Turning to `CC#CC(=O)N1CCC(Nc2cc(CN3CCOCC3)cc(Nc3ncc(C)s3)n2)C1` (centres unmarked) [Example 14, 1-(3-((6-((5-methylthiazol-2-yl)amino)-4-(morpholinomethyl)pyridin-2-yl)amino)pyrrolidin-1-yl) but-2-yn-1-one], the results for the IC50 on ITK and at BTK were 49.1 nM and 3.3 nM, respectively.

Turning to `C=CC(=O)N1CCC[C@H](Nc2cc(CN3CCOCC3)cc(Nc3cc(Cl)[nH]n3)n2)C1` [Example 50, (S)-1-(3-(6-(5-chloro-1H-pyrazol-3-ylamino)-4-(morpholinomethyl)pyridin-2-ylamino)piperidin-1-yl) prop-2-en-1-one], the IC50 on ITK and at BTK was ~1000 nM each time.

Consider `C=CC(=O)N1CCC[C@H](Nc2cc(C)cc(Nc3ncc(C)s3)n2)C1` [Example 35, (S)-1-(3-((4-methyl-6-((5-methylthiazol-2-yl)amino)pyridin-2-yl)amino)piperidin-1-yl) prop-2-en-1-one], for which the IC50 on ITK came to 13.4 nM; at BTK, 2.1 nM.

`C=CC(=O)N1CCC[C@H](Nc2cc(CN3CCN(CCC#N)CC3)cc(Nc3ncc(C)s3)n2)C1` [Example 34, (S)-3-(4-((2-((1-acryloylpiperidin-3-yl)amino)-6-((5-methylthiazol-2-yl)amino)pyridin-4-yl)methyl)piperazin-1-yl) propanenitrile]: the IC50 was 1.7 nM at ITK and 1.1 nM at BTK.

`C=CC(=O)N1CCC[C@H](Nc2cc(CN3CCN(C)CC3)cc(Nc3ncc(C)s3)n2)C1` [Example 43]: the figures for the IC50 on ITK and at BTK were 2.1 nM and 1.6 nM, respectively.

For the compound `C=CC(=O)N1CCC[C@H](Nc2cc(CN3CCN(CCCN)CC3)cc(Nc3ncc(C)s3)n2)C1` [Example 47, (S)-1-(3-(4-((4-(3-aminopropyl)piperazin-1-yl)methyl)-6-(5-methylthiazol-2-vlamino)pyridin-2-vlamino)piperidin-1-yl) prop-2-en-1-one], the 50% inhibitory concentration (IC50) came out at 9 nM at ITK and 6.1 nM on BTK.

On to `C=CC(=O)N1CC[C@H](Nc2nc(CN3CCOCC3)cc(Nc3ncc(C)s3)n2)C1` [Example 24, (S)-1-(3-((4-((5-methylthiazol-2-yl)amino)-6-(morpholinomethyl)pyrimidin-2-yl)amino)pyrrolidin-1-yl) prop-2-en-1-one], for which the results for the IC50 on ITK and on BTK were 2.3 nM and 2.2 nM, respectively.

As to `C=CC(=O)N1CCC[C@H](Nc2cc(-c3ccccc3)cc(Nc3ncc(C)s3)n2)C1` [Example 39, (S)-1-(3-((6-((5-methylthiazol-2-yl)amino)-4-phenylpyridin-2-yl)amino)piperidin-1-yl) prop-2-en-1-one], the concentration for half-maximal inhibition (IC50) at ITK worked out at 4.8 nM; on BTK it was 7.5 nM.

In the case of `C=CC(=O)N1CCC[C@H](Oc2cc(CN3CCOCC3)cc(Nc3ncc(C)s3)n2)C1` [Example 15, (S)-1-(3-((6-((5-methylthiazol-2-yl)amino)-4-(morpholinomethyl)pyridin-2-yl)oxy)piperidin-1-yl) prop-2-en-1-one], the figures for the IC50 on ITK and on BTK were 47.3 nM and 2.3 nM, respectively.

`C=CC(=O)N1CCC(Nc2cc(CN3CCOCC3)nc(Nc3ncc(C)s3)n2)C1` (centres unmarked) [Example 8, 1-(3-((2-((5-methylthiazol-2-yl)amino)-6-(morpholinomethyl)pyrimidin-4-yl)amino)pyrrolidin-1-yl) prop-2-en-1-one]: the values for the IC50 on ITK and on BTK were 71.7 nM and 72.5 nM, respectively.
